Data as given in patent US6524566B2, “Synthetic soil-extract materials and medicaments for herpes viruses based thereon” (Laub Biochemicals Corp., priority 1997, dated 2003).
In brackets after ≈: the same amount, converted by molar mass.

Legend:
HSV-1 (HFF Cells) = assay: HSV-1 cytoprotection assay in HFF cells (crystal violet); assay type: cell-based, herpes simplex virus type 1; conditions: Human alphaherpesvirus 1, 72 h, 3 days
HSV-2 (HFF Cells) = assay: HSV-2 cytoprotection assay in HFF cells (crystal violet); assay type: cell-based, herpes simplex virus type 2; conditions: Human alphaherpesvirus 2, 72 h, 3 days
EBV (Daudi Cells) = assay: EBV VCA ELISA in superinfected Daudi cells; assay type: cell-based, Epstein-Barr virus; conditions: human gammaherpesvirus 4, 96 h, 4 days
Description: The EBV prototype virus used in the assay of this work was P3HR-1, which is derived from supernatant fluids of the P3HR-1 cell line. This cell line produces nontransforming virus that induces the production of early antigen (EA) and viral capsid antigen (VCA) after primary infection or superinfection of B cell lines. Daudi was the test-cell line, which is a low-level producer that contains 152 EBV genome copies per cell. These cells respond to superinfection by EBV by expressing EA and VCA. The cell line was maintained in RPMI-1640 medium supplemented by 10% FBS, L-glutamine and 100 micrograms per milliliter gentamicin. The cultures were fed twice weekly and the cell concentration adjusted to 3×10^5 cells per milliliter. The cells were kept at 37° C. in a humidified atmosphere with 5% CO2.
Daudi cells were infected and treated with humates as described above for HSV, HCMV, and VZV. The cultures were incubated for 4 days at 37° C. The cells were counted, washed and brought to the desired final concentration. For each dilution of humate, cells were added to triplicate wells of a 96-well plate and air-dried. The cells were then fixed for 20 minutes in an acetic acid/ethanol solution. […] The reaction was stopped by adding 3 Normal sulfuric acid, following which the plates were read on a microplate reader at 492 nanometers.

HCMV (HFF Cells) = assay: HCMV cytoprotection assay in HFF cells (crystal violet); assay type: cell-based, human cytomegalovirus; conditions: Human betaherpesvirus 5, 336 h, 14 days

Nc1nc2c(ncn2COCCO)c(=O)[nH]1 [Acyclovir]
IC50 (HSV-1 (HFF Cells)): 1.2 to 1.6 mg/L (≈ 5.33 to 7.1 µM) | IC90 (HSV-1 (HFF Cells)): 7.9 mg/L (≈ 35.1 µM) | IC50 (HSV-2 (HFF Cells)): 1.1 to 1.3 mg/L (≈ 4.88 to 5.77 µM) | IC90 (HSV-2 (HFF Cells)): 9.5 mg/L (≈ 42.2 µM) | IC50 (EBV (Daudi Cells)): 1.8 to 2.4 mg/L (≈ 7.99 to 10.7 µM)

Nc1nc(O)c2ncn(COC(CO)CO)c2n1 [Ganciclovir]
IC50 (HCMV (HFF Cells)): 0.3 to 0.76 mg/L (≈ 1.18 to 2.98 µM) | IC90 (HCMV (HFF Cells)): 0.6 to 1.3 mg/L (≈ 2.35 to 5.09 µM)
